# Results: patent US9265756B2, “Crystalline forms of grapiprant” (Aratana Therapeutics Inc., priority 2014, dated 2016)
# “Also recorded” adds a separate entry of the source.
# What was measured:
# [1] = water activity relating Forms A and D; type: physicochemical; conditions: room temperature
# Experimental: Overall, FIG. 1 summarizes the relationship of each polymorphic form with relationship to each other. Form J may be converted to Form D by drying in air (1). Form J may be converted to Form A by slurry in DCM/acetone (<1:2 v/v) at 25° C. (2). Form A may be converted to Form J by precipitation from DCM/n-heptane (2:1 v/v) (3). Forms A and D have an aw value of about 0.6 at room temperature (4). Form X may be converted from a slurry mixture of Form D and Form J in DCM/acetone or DCM/n-heptane (2:1 v/v) at room temperature (5). Form X may be converted to Form A by slurry in DCM/acetone (1:1 v/v) (6). Form A may be converted to Form X by slurry in DCM/acetone (≦1:3 v/v (7) or 1:2 v/v with 0.3 wt. % water (8)). Form X2 may be converted to Form A by slurry in DCM/acetone (1:3 v/v) with 0.3 wt. % water (9). Form A may be converted to Form X2 by slurry in acetone with 0.3 wt. % water (10). Form X2 may be converted to Form X3 by drying (11). Form X2 may also be generated by slurry of Forms A and X3 in DCM/acetone (1:3 v/v) with 0.3 wt. % water (12).
# [2] = stability of crystalline forms (slurry experiments); conditions: in 1:1 DCM/acetone (v/v)
# Experimental: The stability of the crystalline forms was analyzed using slurry experiments. A portion of the solvent of interest was saturated with grapiprant in a small vial. Additional grapiprant was then added to the vial, and the resulting slurry was stirred using a magnetic stir bar.
# [3] = solid form change on heating (XRPD); type: physicochemical
# Experimental: The X-ray powder diffraction (XRPD) pattern was determined using an X-ray diffractometer. The instrument was equipped with a long fine focus X-ray tube (with a copper Kα radiation source operated at 45 kV/40 mA), and a diffracted beam monochromator mounted in front of a scintillation detector. The instrument parameters included a scan range of 3.0 to 40.0 degrees 2-theta, a step size of 0.02 degrees 2-theta, and a scan time of 12.7 seconds per step. The instrument was interfaced with a computer for data acquisition and analysis. Each sample was uniformly crushed with a spatula edge and placed on a quartz, zero-background holder.
# [4] = tested on: thermal hyperalgesia induced by intraplantar injection of PGE2; conditions: oral administration; cited from earlier work
# [5] = tested on: other human prostanoid receptor subtypes; conditions: cited from earlier work
# [6] = tested on: complete Freund's adjuvant-induced chronic inflammatory pain response; conditions: cited from earlier work
# [7] = tested on: mechanical hyperalgesia induced by carrageenan model; conditions: cited from earlier work
structure (smiles),measurement,setting,value
CCc1nc2c(C)nc(C)cc2n1-c1ccc(CCNC(=O)NS(=O)(=O)c2ccc(C)cc2)cc1 [Form A],aw value,[1],about 0.6
same,relative stability of crystalline forms,[2],more stable than Form J
CCc1nc2c(C)nc(C)cc2n1-c1ccc(CCNC(=O)NS(=O)(=O)c2ccc(C)cc2)cc1 [Form J],form after heating (XRPD),[3]; heating to 120° C.,becomes Form A; also recorded: converted into Form A
CCc1nc2c(C)nc(C)cc2n1-c1ccc(CCNC(=O)NS(=O)(=O)c2ccc(C)cc2)cc1 [Form X],form after heating (XRPD),[3]; heating to 110° C.,becomes amorphous; also recorded: converted into amorphous
"CCc1nc2c(C)nc(C)cc2n1-c1ccc(CCNC(=O)NS(=O)(=O)c2ccc(C)cc2)cc1 [grapiprant, N-{2-[4-(2-ethyl-4,6-dimethyl-1H-imidazo[4,5-c]pyridin-1-yl)phenyl]ethyl}-N′-[(4-methylphenyl)sulfonyl]urea]","ED50, reduction of thermal hyperalgesia",[4],12.8 mg/kg
same,selectivity for the EP4 receptor over other human prostanoid receptor subtypes,[5],highly selective
same,effect on chronic inflammatory pain response,[6],reverses
same,effect on mechanical hyperalgesia,[7],significantly reduces
